Paper PMC11738990, “A small-molecule TNIK inhibitor targets fibrosis in preclinical and clinical models” (Nature Biotechnology, 2024)
Read-outs that look alike come from different tables or passages of the source.

How the values were obtained:
mice = conditions: male mice, 180 mg/kg daily; ref Insilico Medicine, 2021; cited from earlier work

CC(C)n1cnc(-c2ccc(F)cc2)c1-c1nc(C(=O)Nc2ccc(N3CCN(C)CC3)cc2)c[nH]1 [INS018_055, 2-[4-(4-fluorophenyl)-1-(prop-2-yl)imidazol-5-yl]-N-[4-(4-methylhexahydropyrazin-1-yl)phenyl]-1H-imidazole-4-carboxamide]
11.1%: Blood and lymphatic system disorders (healthy subjects; MAD any dose N=18) | Blood fibrinogen decreased (healthy subjects; MAD any dose N=18) | Epistaxis (healthy subjects; MAD any dose N=18) | Pyrexia (healthy subjects; MAD any dose N=18) | White blood cells urine positive (healthy subjects; MAD any dose N=18) | Cardiac disorders (healthy subjects; SAD any dose N=18) | Sinus bradycardia (healthy subjects; SAD any dose N=18)
33.3%: Musculoskeletal and connective tissue disorders (healthy subjects; MAD any dose N=18) | Any TEAE (healthy subjects; SAD 60 mg N=6) | Investigations (healthy subjects; SAD any dose N=18)
83.3%: Any TEAE (healthy subjects; SAD 30 mg N=6)
55.6%: Fecal occult positive (healthy subjects; MAD any dose N=18) | Any TEAE (healthy subjects; SAD any dose N=18)
50.0%: Hypertriglyceridaemia (healthy subjects; MAD any dose N=18) | Any TEAE (healthy subjects; SAD 120 mg N=6)
38.9%: Nervous system disorders (healthy subjects; MAD any dose N=18)
0.0%: Limb discomfort (healthy subjects; MAD any dose N=18) | Blood glucose increased (healthy subjects; SAD any dose N=18) | White blood cells urine positive (healthy subjects; SAD any dose N=18)
77.8%: Investigations (healthy subjects; MAD any dose N=18)
5.6%: Arthralgia (healthy subjects; MAD any dose N=18) | Basophil count increased (healthy subjects; MAD any dose N=18) | Blood bilirubin increased (healthy subjects; MAD any dose N=18) | Blood creatine phosphokinase increased (healthy subjects; MAD any dose N=18) | Blood pressure decreased (healthy subjects; MAD any dose N=18) | Blood pressure increased (healthy subjects; MAD any dose N=18) | Cardiac disorders (healthy subjects; MAD any dose N=18) | Electrolyte imbalance (healthy subjects; MAD any dose N=18) | Hepatic enzyme increased (healthy subjects; MAD any dose N=18) | Hyperphosphataemia (healthy subjects; MAD any dose N=18) | Hyponatraemia (healthy subjects; MAD any dose N=18) | Infections and infestations (healthy subjects; MAD any dose N=18) | Nasal obstruction (healthy subjects; MAD any dose N=18) | Nausea (healthy subjects; MAD any dose N=18) | Pruritus (healthy subjects; MAD any dose N=18) | Sinus bradycardia (healthy subjects; MAD any dose N=18) | Total bile acids increased (healthy subjects; MAD any dose N=18) | Vomiting (healthy subjects; MAD any dose N=18) | Blood uric acid increased (healthy subjects; SAD any dose N=18) | Body temperature increased (healthy subjects; SAD any dose N=18) | Gastrointestinal disorders (healthy subjects; SAD any dose N=18) | Headache (healthy subjects; SAD any dose N=18) | Hypotension (healthy subjects; SAD any dose N=18) | Nervous system disorders (healthy subjects; SAD any dose N=18) | Vascular disorders (healthy subjects; SAD any dose N=18) | Noninfective gingivitis (healthy subjects; in vivo) | Upper respiratory tract infection (healthy subjects; in vivo)
27.8%: Influenza like illness (healthy subjects; MAD any dose N=18) | Pain in extremity (healthy subjects; MAD any dose N=18) | Fecal occult positive (healthy subjects; SAD any dose N=18) | Hypertriglyceridaemia (healthy subjects; SAD any dose N=18)
19.8%: reduction of erythrocyte count (mice)
22.2%: Dizziness (healthy subjects; MAD any dose N=18) | Gastrointestinal disorders (healthy subjects; MAD any dose N=18) | Skin and subcutaneous tissue disorders (healthy subjects; MAD any dose N=18)
88.9%: Any TEAE (healthy subjects; MAD any dose N=18)
16.7%: Haematuria (healthy subjects; MAD any dose N=18) | Headache (healthy subjects; MAD any dose N=18) | Rash (healthy subjects; MAD any dose N=18) | Renal and urinary disorders (healthy subjects; MAD any dose N=18) | Respiratory, thoracic and mediastinal disorders (healthy subjects; MAD any dose N=18)
